Broadly, the CC50 is the concentration that lowers cell viability or growth by half. Broadly, the EC50 is the midpoint of the concentration-response curve.

The values below come from patent US8865705B2, “Benzimidazole respiratory syncytial virus inhibitors” (Janssen R&D Ireland, priority 2010, dated 2014).

One series deals with HeLa cells. Kind of series: Cytotoxicity in HeLa cells by ATP content (ATPlite kit). Type of series: cell-based. As for the experimental part: (§1) Black 96-well clear-bottom microtiter plates (Corning, Amsterdam, The Netherlands) were filled in duplicate using a customized robot system with serial 4-fold dilutions of compound in a final volume of 50 μl culture medium [RPMI medium without phenol red, 10% FBS, 0.04% gentamycin (50 mg/mL) and 0.5% DMSO]. Then, 100 μl of a HeLa cell suspension (5×10^4 cells/mL) in culture medium was added to each well followed by the addition of 50 μl rgRSV224 (MOI=0.02) virus in culture medium using a multidrop dispenser (Thermo Scientific, Erembodegem, Belgium). rgRSV224 virus is an engineered virus that includes an additional GFP gene (Hallak et al, 2000) and was in-licensed from the NIH (Bethesda, Md., USA). Medium, virus- and mock-infected controls were included in each test. Cells were incubated at 37° C. in a 5% CO2 atmosphere. Three days post-virus exposure, viral replication was quantified by measuring GFP expression in the cells by a MSM laser microscope (Tibotec, Beerse, Belgium). The EC50 was defined as the 50% inhibitory concentration for GFP expression. In parallel, compounds were incubated for three days in a set of white 96-well microtitier plates (Corning) and the cytotoxicity of compounds in HeLa cells was determined by measuring the ATP content of the cells using the ATPlite kit (PerkinElmer, Zaventem, Belgium) according to the manufacturer's instructions. The CC50 was defined as the 50% concentration for cytotoxicity.

A further series concerns rgRSV224 virus. Put plainly: microbe, parasite or virus in culture. Type of series: cell-based, respiratory syncytial virus (RSV). Particulars: read-out: WT activity EC50. As for the experimental part:
as §1, with “The EC50 was defined as the 50% inhibitory concentration for GFP expression.” left out, “instructions.” for “instructions. The CC50 was defined as the 50% concentration for cytotoxicity.”

Series [1] is described as follows: Cytotoxicity in HeLa cells by ATP content (ATPlite kit). Type of series: cell-based. Particulars: human; Table 1; HeLa cells, three days, ATP content; read-out: Tox CC50. As for the experimental part:
as §1

[2] abbreviates: Table 1, HeLa cells, three days, ATP content, read-out: Tox CC50.
The mark [3] stands for this setting: Table 1, rgRSV224 in HeLa cells, GFP expression three days post-virus exposure.

Where two headings read alike, the source gives them in different places.

Take `O=c1n(Cc2nc3cc(Br)ccc3n2CCCCF)c2cnccc2n1C1CC1` [P1]: the CC50 with HeLa cells (setting [2]) is above 9840 nM. For the same molecule, the EC50 in the series on rgRSV224 virus (setting [3]) was determined as 0.033 nM.

On to `CS(=O)(=O)CCCn1c(Cn2c(=O)n(C3CC3)c3ccncc32)nc2cc(Br)ccc21` [P2, 3-({5-Bromo-1-[3-(methylsulfonyl)propyl]-1H-benzimidazol-2-yl}methyl)-1-cyclopropyl-1,3-dihydro-2H-imidazo[4,5-c]pyridin-2-one], for which, in series [1], the half-maximal cytotoxic concentration (CC50) at 3 days was above 9840 nM. Further, in the series with rgRSV224 virus (human respiratory syncytial virus, HeLa, 72 h), the EC50 came to 0.034 nM.

With `CS(=O)(=O)CCCn1c(Cn2c(=O)n(C3CC3)c3ccc(F)cc32)nc2cc(Br)ccc21` [P3], in the series with HeLa cells, the cytotoxic concentration (CC50) was above 9840 nM. In addition, in the series with rgRSV224 virus (setting [3]), the EC50 is 0.47 nM.

With `CS(=O)(=O)NCCCCn1c(Cn2c(=O)n(C3CC3)c3ccncc32)nc2cc(Br)ccc21` [P5], in the series on HeLa cells, the CC50 is above 101000 nM. Also, the 50% effective concentration (EC50) with rgRSV224 virus (setting [3]) is below 0.15 nM.

On to `CS(=O)(=O)CCCn1c(Cn2c(=O)n(C3CC3)c3ccncc32)nc2cc(Cl)ccc21` [P6], for which the half-maximal cytotoxic concentration (CC50) with HeLa cells is above 9840 nM. For the same molecule, the EC50 in the series with rgRSV224 virus (setting [3]) is below 0.15 nM.

In turn, `CS(=O)(=O)CCCn1c(Cn2c(=O)n(C3CC3)c3ccccc32)nc2cc(Br)ccc21` [P7] yielded a half-maximal cytotoxic concentration (CC50) in the series with HeLa cells above 9840 nM. Further, the EC50 in the series with rgRSV224 virus (setting [3]) was below 0.15 nM.

For the molecule `O=c1n(Cc2nc3cc(Br)ccc3n2CCCCCl)c2cnccc2n1C1CC1` [P8], the CC50 in the series on HeLa cells (setting [2]) is above 9840 nM. Also, the EC50 with rgRSV224 virus (setting [3]) is below 0.205 nM.

In the case of `CS(=O)(=O)NCCCn1c(Cn2c(=O)n(C3CC3)c3ccncc32)nc2cc(Br)ccc21` [P9], the half-maximal cytotoxic concentration (CC50) in the series with HeLa cells was above 101000 nM. In addition, in the series on rgRSV224 virus (setting [3]), the EC50 stood at 0.21 nM.

The molecule `CS(=O)(=O)CCCn1c(Cn2c(=O)n(C3CC3)c3ccc(F)cc32)nc2cc(Cl)ccc21` [P10] showed a CC50 with HeLa cells above 9840 nM. The concentration giving a half-maximal response (EC50) in the series with rgRSV224 virus (setting [3]) was 0.23 nM.

On to `O=c1n(Cc2nc3cc(Cl)ccc3n2CCCCO)c2cc(F)ccc2n1C1CC1` [P11], for which the CC50 in the series on HeLa cells was above 9840 nM. For the same molecule, in the series with rgRSV224 virus (setting [3]), the EC50 turned out to be 0.253 nM.

In the case of `O=c1n(Cc2nc3cc(Cl)ccc3n2CCCCO)c2ccccc2n1C1CC1` [P12], the CC50 in the series with HeLa cells was above 9840 nM. The concentration for a half-maximal effect (EC50) in the series with rgRSV224 virus (setting [3]) was determined as 0.307 nM.

`O=c1n(Cc2nc3cc(Cl)ccc3n2CCCCO)c2cnccc2n1C1CC1` [P13] came in with a CC50 in the series on HeLa cells above 9840 nM. Further, in the series on rgRSV224 virus (setting [3]), the half-maximal effective concentration (EC50) is 0.454 nM.

Regarding `O=c1n(Cc2nc3cc(Br)ccc3n2CCCCO)c2cnccc2n1C1CC1` [P14], the CC50 with HeLa cells is above 98400 nM. In the series on rgRSV224 virus (setting [3]), the half-maximal effective concentration (EC50) came out at 0.523 nM.

In the case of `CC(C)CCn1c(Cn2c(=O)n(C3CC3)c3ccncc32)nc2cc(Cl)ccc21` [P15], the CC50 in the series on HeLa cells is above 98400 nM. Also, the EC50 in the series on rgRSV224 virus (setting [3]) was below 0.62 nM.

The molecule `O=c1n(Cc2nc3cc(Br)ccc3n2CCCCO)c2cc(F)ccc2n1C1CC1` [P16] displayed a CC50 with HeLa cells above 9840 nM. The EC50 in the series with rgRSV224 virus (setting [3]) amounted to 0.744 nM.

`CC(C)CCn1c(Cn2c(=O)n(C3CC3)c3ccncc32)nc2cc(Br)ccc21` [P17]: the cytotoxic concentration (CC50) in the series on HeLa cells was above 49200 nM. Also, in the series with rgRSV224 virus (setting [3]), the EC50 worked out at 0.808 nM.

Regarding `CC(=O)OCCCCn1c(Cn2c(=O)n(C3CC3)c3ccncc32)nc2cc(Br)ccc21` [P18], the CC50 in the series with HeLa cells (setting [2]) was above 101000 nM. Also, the half-maximal effective concentration (EC50) in the series on rgRSV224 virus (setting [3]) turned out to be 1.07 nM.

`CC(C)(C)C(=O)OCCCCn1c(Cn2c(=O)n(C3CC3)c3ccccc32)nc2cc(Cl)ccc21` [P19] had a cytotoxic concentration (CC50) in the series with HeLa cells above 9840 nM. For the same molecule, the EC50 in the series on rgRSV224 virus (setting [3]) came out at 2.59 nM.

As to `CC(C)(C)C(=O)OCCCCn1c(Cn2c(=O)n(C3CC3)c3ccc(F)cc32)nc2cc(Cl)ccc21` [P20], the 50% cytotoxic concentration (CC50) in the series with HeLa cells is above 9840 nM. For the same molecule, the EC50 in the series with rgRSV224 virus (setting [3]) was 4.09 nM.

As for `CN(C)CCCn1c(Cn2c(=O)n(C3CC3)c3ccncc32)nc2cc(Br)ccc21` [P21], the half-maximal cytotoxic concentration (CC50) with HeLa cells is above 98400 nM. Also, the EC50 in the series with rgRSV224 virus (setting [3]) was determined as 4.12 nM.

For the molecule `CC(=O)OCCCCn1c(Cn2c(=O)n(C3CC3)c3ccc(F)cc32)nc2cc(Br)ccc21` [P22], the 50% cytotoxic concentration (CC50) in the series with HeLa cells (setting [2]) was above 9840 nM. Further, the concentration giving a half-maximal response (EC50) with rgRSV224 virus (setting [3]) is below 0.81 nM.

Consider `O=c1n(Cc2nc3cc(Br)ccc3n2CCCCF)c2cc(F)ccc2n1C1CC1` [P23], for which the 50% cytotoxic concentration (CC50) in the series on HeLa cells (setting [2]) was above 9840 nM. For the same molecule, the EC50 in the series on rgRSV224 virus (setting [3]) is below 1.6 nM.

As for `CS(=O)(=O)CCCn1c(Cn2c(=O)n(C3CC3)c3ccccc32)nc2cc(Cl)ccc21` [P24], in the series with HeLa cells, the CC50 was above 9840 nM. The EC50 with rgRSV224 virus (setting [3]) was below 0.15 nM.

As for `O=c1n(Cc2nc3cc(Cl)ccc3n2CCCCF)c2ccccc2n1C1CC1` [P25], the CC50 in the series with HeLa cells (setting [2]) was above 9840 nM. The half-maximal effective concentration (EC50) with rgRSV224 virus (setting [3]) is below 0.15 nM.

Turning to `N#CCCCn1c(Cn2c(=O)n(C3CC3)c3ccncc32)nc2cc(Cl)ccc21` [P26], in the series with HeLa cells (setting [2]), the CC50 is above 9840 nM. For the same molecule, in the series with rgRSV224 virus (setting [3]), the half-maximal effective concentration (EC50) is below 0.15 nM.

Turning to `N#CCCCn1c(Cn2c(=O)n(C3CC3)c3ccncc32)nc2cc(Br)ccc21` [P27], the CC50 in the series on HeLa cells (setting [2]) is above 9840 nM. Further, the EC50 in the series with rgRSV224 virus (setting [3]) is below 0.15 nM.
